US11633392B2 (priority 2016, dated 2023)
Marks after values point to notes of the source that are not given here.

Columns and labels:
human opioid κ receptor = molecular target: T1, human opioid κ receptor (Homo sapiens, UniProt P41145); experiment: Opioid receptor function test (Lance Ultra cAMP Kit), κ receptor; type: cell-based; conditions: for EC50: CHO cells expressing human κ receptor, cAMP, in the presence of forskolin; for Emax: ratio to maximum reaction of control drug U-69593 taken as 100%
T1 construct: host or cells: CHO cells
T1 sequence (P41145 whole entry): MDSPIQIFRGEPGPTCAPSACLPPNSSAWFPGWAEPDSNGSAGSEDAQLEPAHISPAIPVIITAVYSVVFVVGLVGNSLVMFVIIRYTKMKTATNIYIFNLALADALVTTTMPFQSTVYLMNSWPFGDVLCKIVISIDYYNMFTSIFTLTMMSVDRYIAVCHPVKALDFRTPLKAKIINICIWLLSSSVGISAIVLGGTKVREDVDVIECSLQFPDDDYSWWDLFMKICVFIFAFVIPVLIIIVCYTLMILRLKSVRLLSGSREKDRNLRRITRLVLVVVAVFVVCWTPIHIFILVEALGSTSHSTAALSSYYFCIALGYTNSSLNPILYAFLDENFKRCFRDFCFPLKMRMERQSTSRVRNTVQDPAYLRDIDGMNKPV
Description: (§1) Opioid Receptor Function Test
(§2) The functional activities of the compounds provided by the present invention on the μ, δ, and κ opioid receptors were investigated.
(§3) The test was performed by using Lance Ultra cAMP Kit (PerkinElmer) according to a method predetermined for the kit. In the evaluation of the agonistic activity, CHO cells expressing each of the human opioid receptors (δ, μ, and κ, accession numbers and catalog numbers are mentioned below) and 10 μM of each test compound were reacted for 30 minutes in an assay buffer (1× HBSS, […], pH 7.4, […] (isobutylmethylxanthine), 7.5% BSA) in the presence of forskolin. Subsequently, the cAMP detection reagent included in the kit was added, and 1 hour afterward, time-resolved fluorescence measurement was performed by using the EnVision plate reader (PerkinElmer). The test compounds and the control drugs (δ: SNC80, μ: DAMGO, κ: U-69593) were evaluated in a concentration range of 10^−12 to 10^−5 M, a dose-response curve of each test compound was obtained from the fluorescence values at 665 nm, and EC50 value and the Emax value were calculated. The Emax value was calculated as a ratio of the maximum reaction of the test compound to the maximum reaction of each control drug, which is taken as 100%.
(§4) • δ: Catalog No. CT4607, Accession No. NM_000911.2 • μ: Catalog No. CT4605, Accession No. NM_000914 • κ: Catalog No. CT4606, Accession No. NM_000912 (ChanTest Corporation)

human opioid δ receptor = molecular target: T2, human opioid δ receptor (Homo sapiens, UniProt P41143); experiment: Opioid receptor function test (Lance Ultra cAMP Kit), δ receptor; type: cell-based; conditions: for EC50: CHO cells expressing human δ receptor, cAMP, in the presence of forskolin; for Emax: ratio to maximum reaction of control drug SNC80 taken as 100%
T2 construct: host or cells: CHO cells
T2 sequence (P41143 whole entry): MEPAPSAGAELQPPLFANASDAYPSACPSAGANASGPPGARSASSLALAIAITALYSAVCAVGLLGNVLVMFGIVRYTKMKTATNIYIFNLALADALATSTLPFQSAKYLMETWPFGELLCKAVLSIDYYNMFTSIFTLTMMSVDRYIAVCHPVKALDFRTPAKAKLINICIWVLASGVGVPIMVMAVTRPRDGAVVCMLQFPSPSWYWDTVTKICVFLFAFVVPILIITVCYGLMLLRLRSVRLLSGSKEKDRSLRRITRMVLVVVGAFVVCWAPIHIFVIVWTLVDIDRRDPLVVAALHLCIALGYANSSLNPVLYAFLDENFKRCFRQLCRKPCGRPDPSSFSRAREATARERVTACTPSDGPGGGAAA
Description: as §1, §2, §3, §4

human opioid μ receptor = molecular target: T3, human opioid μ receptor (Homo sapiens, UniProt P35372); experiment: Opioid receptor function test (Lance Ultra cAMP Kit), μ receptor; type: cell-based; conditions: for EC50: CHO cells expressing human μ receptor, cAMP, in the presence of forskolin, read-out: μ receptor EC50 value; for Emax: ratio to maximum reaction of control drug DAMGO taken as 100%; for μ receptor reaction rate at the maximum concentration (reference value, marked *): maximum reaction not reached, maximum concentration 10 μM, DAMGO = 100%
T3 construct: host or cells: CHO cells
T3 sequence (P35372 whole entry): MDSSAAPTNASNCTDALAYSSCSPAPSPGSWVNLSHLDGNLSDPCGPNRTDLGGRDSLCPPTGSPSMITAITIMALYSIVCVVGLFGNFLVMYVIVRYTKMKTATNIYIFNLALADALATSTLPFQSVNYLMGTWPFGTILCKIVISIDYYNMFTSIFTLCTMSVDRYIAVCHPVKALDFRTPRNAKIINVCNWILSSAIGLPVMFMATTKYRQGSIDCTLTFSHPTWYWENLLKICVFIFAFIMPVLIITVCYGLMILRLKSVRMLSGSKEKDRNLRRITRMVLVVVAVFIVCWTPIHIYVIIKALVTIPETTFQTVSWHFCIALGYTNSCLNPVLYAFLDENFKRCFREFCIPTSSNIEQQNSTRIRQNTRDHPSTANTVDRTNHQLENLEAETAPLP
Description: as §1, §2, §3, §4

Wistar male rats = experiment: Rat elevated plus maze test; type: in vivo; conditions: oral, 3 mg/kg, 2 hours before test (FIG. 6)
Description: Rat Elevated Plus Maze Test
Anxiolytic effects of the compounds provided by the present invention were investigated by the rat elevated plus maze test.
For the test, 7 to 9 weeks old Wistar male rats were used. […] Each test substance was dissolved in a 4.5% aqueous solution of cyclodextrin, and orally administered 2 hours before the start of the test. The test data were automatically analyzed by using video image action analysis software (Smart3.0, PanLab S.L., PanLab), and wall-less running route staying time ratio (%) was calculated.

C57BL/6N male mice = experiment: Mouse elevated plus maze test; type: in vivo; conditions: subcutaneous
Description: Mouse Elevated Plus Maze Test
For the test, 5 to 6 weeks old C57BL/6N male mice were used. On a plus maze apparatus consisting of a wall-less running route (open arm, width 6 cm, length 30 cm) and a running route with a wall (closed arm, width 6 cm, length 30 cm, height of wall 15 cm), and having a height of 40 cm, a mouse was put so as to be directed to the running route with a wall, and allowed to spontaneously enter into the plus maze. Each test substance was dissolved in saline or 0.005 N HCl in saline, and subcutaneously administered on the back 30 minutes before the start of the test. At the time of the start of the test, video recording with a video camera was started, the time at which the mouse entered into the plus maze is considered to be the start of the test, and exploratory behavior was recorded for 5 minutes. On the basis of the video image, staying times in the running routes were determined, and wall-less running route staying time ratio (%) was calculated.

hERG potassium channel = molecular target: T4, hERG potassium channel (Homo sapiens, UniProt Q12809); experiment: hERG potassium channel inhibition test (automatic patch clamp); type: cell-based; conditions: pH 7.4, hERG-expressing CHO cells, tail current, read-out: hERG channel inhibitory action
T4 construct: host or cells: CHO cells
T4 sequence (Q12809 whole entry): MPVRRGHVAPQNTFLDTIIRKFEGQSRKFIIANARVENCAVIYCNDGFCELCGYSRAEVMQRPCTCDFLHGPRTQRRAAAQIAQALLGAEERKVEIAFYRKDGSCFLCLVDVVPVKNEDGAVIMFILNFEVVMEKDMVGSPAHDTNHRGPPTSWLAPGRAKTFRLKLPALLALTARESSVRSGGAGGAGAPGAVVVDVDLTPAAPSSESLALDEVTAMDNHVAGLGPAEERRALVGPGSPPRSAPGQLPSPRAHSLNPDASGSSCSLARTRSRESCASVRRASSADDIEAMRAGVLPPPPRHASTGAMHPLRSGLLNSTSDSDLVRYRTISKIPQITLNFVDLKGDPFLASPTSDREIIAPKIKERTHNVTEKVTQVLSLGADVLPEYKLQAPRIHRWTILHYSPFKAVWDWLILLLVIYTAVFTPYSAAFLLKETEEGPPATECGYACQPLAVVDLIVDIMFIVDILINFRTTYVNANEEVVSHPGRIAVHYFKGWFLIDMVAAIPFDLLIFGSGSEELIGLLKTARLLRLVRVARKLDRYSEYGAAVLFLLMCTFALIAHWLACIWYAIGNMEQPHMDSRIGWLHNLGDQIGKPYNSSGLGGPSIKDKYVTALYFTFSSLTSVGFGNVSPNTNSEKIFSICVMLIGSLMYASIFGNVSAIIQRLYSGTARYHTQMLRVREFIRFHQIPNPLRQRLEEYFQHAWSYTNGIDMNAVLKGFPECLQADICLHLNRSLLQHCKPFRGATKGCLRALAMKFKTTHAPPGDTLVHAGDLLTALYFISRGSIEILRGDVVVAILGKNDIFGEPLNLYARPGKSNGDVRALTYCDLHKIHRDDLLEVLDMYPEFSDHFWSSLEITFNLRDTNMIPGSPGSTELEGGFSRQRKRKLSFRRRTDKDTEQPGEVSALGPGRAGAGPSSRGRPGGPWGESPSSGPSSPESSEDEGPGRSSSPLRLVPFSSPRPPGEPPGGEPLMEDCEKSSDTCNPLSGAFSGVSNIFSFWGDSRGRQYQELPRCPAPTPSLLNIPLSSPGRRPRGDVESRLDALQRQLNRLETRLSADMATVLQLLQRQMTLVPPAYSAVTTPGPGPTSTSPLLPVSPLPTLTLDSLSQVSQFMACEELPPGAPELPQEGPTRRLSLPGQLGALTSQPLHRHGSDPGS
Description: hERG (Human Ether-A-Go-Go-Related Gene) Potassium Channel Inhibition Test
The test was performed with Port-a-Patch automatic patch clump apparatus (Nanion Technologies) using hERG channel-stably expressing CHO cells (purchased from Channelopathy Foundation). The membrane potential of the cells was maintained at −80 mV, then there were applied a depolarization pulse at +20 mV for 1.5 seconds, and a following test pulse at −50 mV for 1.5 seconds at a frequency of 1 time per 10 seconds, and the hERG current was confirmed as a tail current induced by the test pulse. The test compound was dissolved in an extracellular fluid (137 mM NaCl, 4 mM KCl, 1.8 mM CaCl2, 1 mM MgCl2, 10 mM D(+)-glucose, 10 mM HEPES, pH 7.4), and the solution was refluxed at room temperature for 5 minutes. The inhibition ratio was obtained from the ratio of the tail current value observed after the compound was applied based on the tail current value observed before the compound was applied, which was taken as 100%.

Metabolic stability test = type: in vitro ADME; conditions: liver microsomes; human hepatic microsomes, 0 to 60 minutes; read-out: metabolic clearance CLint
Description: Human hepatic microsomes and a test substance were reacted for a certain period of time (0 to 60 minutes). The test substance, which was not metabolized in the reaction sample, was measured, and remaining ratio was calculated. The test substance-remaining ratio at the time when the reaction time is 0 hour is taken as 100%. The remaining ratio after incubation was plotted against time as a log-linear plot to obtain a regression line (y=100 e^−kt, k=inclination of straight line: clearance rate constant), and metabolic clearance CLint (mL/min/kg) was calculated by using the following equation. CLint*=k(−min)×52.5(mg MS protein/g liver)×26(g liver/kg)/MS protein (mg MS protein/mL) • *: Davies, B. and Morris T., Physiological parameters in laboratory animals and humans, Pharm. Res., 10(7)1093-1095, 1993 (Test Results)

| Structure (SMILES) | EC50 (human opioid κ receptor) [nM] | Emax (human opioid κ receptor) [%] | EC50 (human opioid δ receptor) [nM] | Emax (human opioid δ receptor) [%] | EC50 (human opioid μ receptor) [nM] | Emax (human opioid μ receptor) [%] | wall-less running route staying time ratio (Wistar male rats) | wall-less running route staying time ratio (C57BL/6N male mice; dose not stated (FIGS. 3 to 5)) | inhibition at 5 min, 10 µM (hERG potassium channel) [%] | μ receptor reaction rate at the maximum concentration (reference value, marked *) (human opioid μ receptor) | wall-less running route staying time ratio (C57BL/6N male mice; 3 mg/kg, 30 minutes before test (FIG. 1)) | CLint scaled (Metabolic stability test) [mL/min/kg] | κ receptor reaction rate at the maximum concentration (reference value, marked *) (human opioid κ receptor; maximum reaction not reached, maximum concentration 10 μM, U-69593 = 100%) |
| --- | --- | --- | --- | --- | --- | --- | --- | --- | --- | --- | --- | --- | --- |
| O=C(c1ccc[nH]c1=O)N1C[C@H]2C[C@@]34CC[C@@H]1[C@@H]2[C@@]31CCN(CC2CC2)[C@@H]4Cc2ccc(O)cc21 [Example 3, 3-((1S,3aR,5aS,6R,11bR,11cS)-14-(cyclopropylmethyl)-10-hydroxy-2,3,3a,4,5,6,7,11c-octahydro-1H-6,11b-(epiminoethano)-1,5a-methanonaphtho[1,2-e]indole-3-carbonyl)pyridin-2(1H)-one] | < 1 | 15 | < 3 | 98 | > 1 | 20 | significantly increased | tendency of increasing | < 50 | – | – | – | – |
| O=C(c1cccc[n+]1[O-])N1C[C@H]2C[C@@]34CC[C@@H]1[C@@H]2[C@@]31CCN(CC2CC2)[C@@H]4Cc2ccc(O)cc21 [Example 1, 2-((1S,3aR,5aS,6R,11bR,11cS)-14-(cyclopropylmethyl)-10-hydroxy-2,3,3a,4,5,6,7,11c-octahydro-1H-6,11b-(epiminoethano)-1,5a-methanonaphtho[1,2-e]indole-3-carbonyl)pyridine 1-oxide] | > 1 | 12 | < 3 | 88 | – | – | – | – | < 50 | 8.3* % | significantly increased | 19 | – |
| Cn1c(C(=O)N2C[C@H]3C[C@@]45CC[C@@H]2[C@@H]3[C@@]42CCN(CC3CC3)[C@@H]5Cc3ccc(O)cc32)cccc1=O [Example 10, 6-((1S,3aR,5aS,6R,11bR,11cS)-14-(cyclopropylmethyl)-10-hydroxy-2,3,3a,4,5,6,7,11c-octahydro-1H-6,11b-(epiminoethano)-1,5a-methanonaphtho[1,2-e]indole-3-carbonyl)-1-methylpyridin-2(1H)-one] | – | – | < 3 | 74 | – | – | significantly increased | tendency of increasing | < 50 | 6.0* % | – | 13 | −0.7* % |
| Cn1cc(C(=O)N2C[C@H]3C[C@@]45CC[C@@H]2[C@@H]3[C@@]42CCN(CC3CC3)[C@@H]5Cc3ccc(O)cc32)ccc1=O [Example 9, 5-((1S,3aR,5aS,6R,11bR,11cS)-14-(cyclopropylmethyl)-10-hydroxy-2,3,3a,4,5,6,7,11c-octahydro-1H-6,11b-(epiminoethano)-1,5a-methanonaphtho[1,2-e]indole-3-carbonyl)-1-methylpyridin-2(1H)-one] | < 1 | 14 | < 3 | 74 | < 1 | 15 | – | tendency of increasing | < 50 | – | – | – | – |
| O=C(c1ccc(=O)[nH]n1)N1C[C@H]2C[C@@]34CC[C@@H]1[C@@H]2[C@@]31CCN(CC2CC2)[C@@H]4Cc2ccc(O)cc21 [Example 16, 6-((1S,3aR,5aS,6R,11bR,11cS)-14-(cyclopropylmethyl)-10-hydroxy-2,3,3a,4,5,6,7,11c-octahydro-1H-6,11b-(epiminoethano)-1,5a-methanonaphtho[1,2-e]indole-3-carbonyl)pyridazin-3(2H)-one] | < 1 | 29 | < 3 | 92 | > 1 | 19 | – | – | – | – | – | 18 | – |
